Results: US8969325B2, “TRPV1 antagonists” (AbbVie Inc., priority 2011, dated 2015)

Columns and labels:
human TRPV1 [1] = target: T1, human TRPV1 (Homo sapiens (Human), UniProt Q8NER1); experiment: Capsaicin Activation Assay (intracellular Ca2+, FLIPR); type: cell-based; details: recombinant HEK293 cells expressing hTRPV1, 50 nM capsaicin
Procedure, shortened: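 Stably transfected HEK293 cells expressing human TRPV1 cDNA, plated the day before in poly-D-lysine plates. Compounds serially diluted from 10 mM DMSO stocks; intracellular Ca2+ fluorescence read on FLIPR at 1 to 5 second intervals.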

human TRPV1 [2] = target: T1, human TRPV1; experiment: Acid Activation Assay (pH 5.0, intracellular Ca2+, FLIPR); type: cell-based; details: percentage of the maximal pH 5.0-induced response remaining; recombinant HEK293 hTRPV1 cells; maximum concentration tested 37.5 μM
Procedure, shortened: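 HEK293 cells stably expressing recombinant hTRPV1, loaded with Calcium-4 dye 90-120 min at 25° C. Compounds added over a 12-point half-log range (top 37.5 μM), then pH 5.0 DPBS/MES challenge after 3 min; FLIPR peak fluorescence over baseline given as % of maximal pH 5.0 response.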

T1 sequence (Q8NER1 whole entry): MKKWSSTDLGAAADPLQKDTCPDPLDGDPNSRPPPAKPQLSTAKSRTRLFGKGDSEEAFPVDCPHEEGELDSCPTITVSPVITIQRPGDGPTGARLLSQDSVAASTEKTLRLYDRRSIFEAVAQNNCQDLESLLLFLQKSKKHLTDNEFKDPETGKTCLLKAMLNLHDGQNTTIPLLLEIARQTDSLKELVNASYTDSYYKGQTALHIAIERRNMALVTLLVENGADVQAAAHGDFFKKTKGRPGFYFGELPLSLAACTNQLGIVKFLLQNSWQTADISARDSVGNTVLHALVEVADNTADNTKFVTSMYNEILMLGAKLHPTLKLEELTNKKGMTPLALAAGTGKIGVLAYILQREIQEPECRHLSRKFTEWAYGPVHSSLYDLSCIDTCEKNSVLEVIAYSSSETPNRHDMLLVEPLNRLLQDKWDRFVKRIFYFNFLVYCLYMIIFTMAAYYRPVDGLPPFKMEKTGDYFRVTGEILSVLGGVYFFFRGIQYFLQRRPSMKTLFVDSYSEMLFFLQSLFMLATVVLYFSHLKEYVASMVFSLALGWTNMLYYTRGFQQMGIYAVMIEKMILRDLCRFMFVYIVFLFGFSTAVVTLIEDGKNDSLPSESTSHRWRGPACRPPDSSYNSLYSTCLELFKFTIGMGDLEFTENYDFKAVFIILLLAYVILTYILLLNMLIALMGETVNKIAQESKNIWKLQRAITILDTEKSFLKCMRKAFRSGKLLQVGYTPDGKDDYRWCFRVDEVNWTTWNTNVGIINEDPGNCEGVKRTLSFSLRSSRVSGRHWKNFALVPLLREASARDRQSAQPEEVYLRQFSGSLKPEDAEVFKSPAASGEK

SMILES | IC50 (human TRPV1 [1]) [nM] | human TRPV1 H^+ (max % remain) (human TRPV1 [2]) [%]
Cn1c(=O)ccc2c(NC(=O)N[C@@H]3CC(C)(C)Oc4ccccc43)cccc21 [Example 77, 1-[(4R)-2,2-dimethyl-3,4-dihydro-2H-chromen-4-yl]-3-(1-methyl-2-oxo-1,2-dihydroquinolin-5-yl)urea] | 41 | 58
Cn1c(=O)ccc2c(NC(=O)N[C@H]3CCOc4cc(OC(F)(F)F)ccc43)cccc21 [Example 78, 1-(1-methyl-2-oxo-1,2-dihydroquinolin-5-yl)-3-[(4S)-7-(trifluoromethoxy)-3,4-dihydro-2H-chromen-4-yl]urea] | 91 | 46
Cn1c(=O)ccc2c(NC(=O)N[C@@H]3CC(CF)(CF)Oc4ccccc43)cccc21 [Example 80, 1-[(4R)-2,2-bis(fluoromethyl)-3,4-dihydro-2H-chromen-4-yl]-3-(1-methyl-2-oxo-1,2-dihydroquinolin-5-yl)urea] | 63 | 45
Cn1c(=O)ccc2c(NC(=O)N[C@@H]3CC(C)(C)Oc4c3ccc(F)c4F)cccc21 [Example 81, 1-[(4R)-7,8-difluoro-2,2-dimethyl-3,4-dihydro-2H-chromen-4-yl]-3-(1-methyl-2-oxo-1,2-dihydroquinolin-5-yl)urea] | 53 | 39
Cn1c(=O)ccc2c(NC(=O)N[C@@H]3CCOc4ccc(F)cc43)cccc21 [Example 82, 1-[(4R)-6-fluoro-3,4-dihydro-2H-chromen-4-yl]-3-(1-methyl-2-oxo-1,2-dihydroquinolin-5-yl)urea] | 250 | 56
Cn1c(=O)ccc2c(NC(=O)N[C@@H]3CCc4cc(F)ccc43)cccc21 [Example 83, 1-[(1R)-5-fluoro-2,3-dihydro-1H-inden-1-yl]-3-(1-methyl-2-oxo-1,2-dihydroquinolin-5-yl)urea] | 19 | 36
Cn1c(=O)ccc2c(NC(=O)N[C@@H]3CC(C)(C)Oc4c3ccc(Cl)c4F)cccc21 [Example 85, 1-[(4R)-7-chloro-8-fluoro-2,2-dimethyl-3,4-dihydro-2H-chromen-4-yl]-3-(1-methyl-2-oxo-1,2-dihydroquinolin-5-yl)urea] | 23 | 39
Cn1c(=O)ccc2c(NC(=O)N[C@@H]3CCc4cc(C(F)(F)F)ccc43)cccc21 [Example 86, 1-(1-methyl-2-oxo-1,2-dihydroquinolin-5-yl)-3-[(1R)-5-(trifluoromethyl)-2,3-dihydro-1H-inden-1-yl]urea] | 10 | 23
Cn1c(=O)ccc2c(NC(=O)N[C@@H]3CCOc4cc(OC(F)(F)F)ccc43)cccc21 [Example 87, 1-(1-methyl-2-oxo-1,2-dihydroquinolin-5-yl)-3-[(4R)-7-(trifluoromethoxy)-3,4-dihydro-2H-chromen-4-yl]urea] | 28 | 57
Cn1c(=O)ccc2c(NC(=O)N[C@H]3CC4(CCC4)Oc4ccc(F)cc43)cccc21 [Example 88, 1-[(4S)-6-fluoro-3,4-dihydrospiro[chromene-2,1′-cyclobutan]-4-yl]-3-(1-methyl-2-oxo-1,2-dihydroquinolin-5-yl)urea] | 2500 | 51
Cn1c(=O)ccc2c(NC(=O)N[C@@H]3CC(C)(C)Oc4cc(Br)ccc43)cccc21 [Example 89, 1-[(4R)-7-bromo-2,2-dimethyl-3,4-dihydro-2H-chromen-4-yl]-3-(1-methyl-2-oxo-1,2-dihydroquinolin-5-yl)urea] | 31 | 53
Cn1c(=O)ccc2c(NC(=O)N[C@@H]3C[C@](C)(C(F)(F)F)Oc4ccccc43)cccc21 [Example 90, 1-(1-methyl-2-oxo-1,2-dihydroquinolin-5-yl)-3-[(2R,4R)-2-methyl-2-(trifluoromethyl)-3,4-dihydro-2H-chromen-4-yl]urea] | 11 | 45
Cn1c(=O)ccc2c(NC(=O)N[C@@H]3CC(C)(C)Oc4cc(C(F)(F)F)ccc43)cccc21 [Example 91, 1-[(4R)-2,2-dimethyl-7-(trifluoromethyl)-3,4-dihydro-2H-chromen-4-yl]-3-(1-methyl-2-oxo-1,2-dihydroquinolin-5-yl)urea] | 15 | 50
Cn1c(=O)ccc2c(NC(=O)N[C@@H]3CC(CF)(CF)Oc4cc(C(F)(F)F)ccc43)cccc21 [Example 92, 1-[(4R)-2,2-bis(fluoromethyl)-7-(trifluoromethyl)-3,4-dihydro-2H-chromen-4-yl]-3-(1-methyl-2-oxo-1,2-dihydroquinolin-5-yl)urea] | 19 | 43
Cn1c(=O)ccc2c(NC(=O)N[C@@H]3CC(C)(C)Oc4c3cccc4C(F)(F)F)cccc21 [Example 93, 1-[(4R)-2,2-dimethyl-8-(trifluoromethyl)-3,4-dihydro-2H-chromen-4-yl]-3-(1-methyl-2-oxo-1,2-dihydroquinolin-5-yl)urea] | 39 | 47
Cn1c(=O)ccc2c(NC(=O)N[C@@H]3CCc4cc(Cl)ccc43)cccc21 [Example 96, 1-[(1R)-5-chloro-2,3-dihydro-1H-inden-1-yl]-3-(1-methyl-2-oxo-1,2-dihydroquinolin-5-yl)urea] | 8 | 37
Cn1c(=O)ccc2c(NC(=O)N[C@@H]3CCOc4c3cccc4C(F)(F)F)cccc21 [Example 97, 1-(1-methyl-2-oxo-1,2-dihydroquinolin-5-yl)-3-[(4R)-8-(trifluoromethyl)-3,4-dihydro-2H-chromen-4-yl]urea] | 17 | 26

Continued, values first:

IC50 (human TRPV1 [1]) [nM] | human TRPV1 H^+ (max % remain) (human TRPV1 [2]) [%] | SMILES
32 | 17 | CCC1(CC)C[C@@H](NC(=O)Nc2cccc3c2ccc(=O)n3C)c2ccc(OC(F)(F)F)cc2O1 [Example 76, 1-[(4R)-2,2-diethyl-7-(trifluoromethoxy)-3,4-dihydro-2H-chromen-4-yl]-3-(1-methyl-2-oxo-1,2-dihydroquinolin-5-yl)urea]
260 | 46 | COCC1(COC)C[C@@H](NC(=O)Nc2cccc3c2ccc(=O)n3C)c2cc(F)ccc2O1 [Example 79, 1-[(4R)-6-fluoro-2,2-bis(methoxymethyl)-3,4-dihydro-2H-chromen-4-yl]-3-(1-methyl-2-oxo-1,2-dihydroquinolin-5-yl)urea]
19 | 53 | Cn1c(=O)ccc2c(NC(=O)N[C@@H]3CC(C)(C)Oc4c(F)cccc43)cccc21 [Example 94, 1-[(4R)-8-fluoro-2,2-dimethyl-3,4-dihydro-2H-chromen-4-yl]-3-(1-methyl-2-oxo-1,2-dihydroquinolin-5-yl)urea]
63 | 54 | Cn1c(=O)ccc2c(NC(=O)N[C@@H]3CC(CF)(CF)Oc4c(F)cccc43)cccc21 [Example 95, 1-[(4R)-8-fluoro-2,2-bis(fluoromethyl)-3,4-dihydro-2H-chromen-4-yl]-3-(1-methyl-2-oxo-1,2-dihydroquinolin-5-yl)urea]
3700 | 58 | Cn1c(=O)ccc2c(NC(=O)N[C@H]3CC(C)(C)Oc4ccc(F)cc43)cccc21 [Example 98, 1-[(4S)-6-fluoro-2,2-dimethyl-3,4-dihydro-2H-chromen-4-yl]-3-(1-methyl-2-oxo-1,2-dihydroquinolin-5-yl)urea]
91 | 0 | O=C(Nc1cccc2[nH]c(=O)ccc12)N[C@@H]1CC(CF)(CF)Oc2cc(Cl)ccc21 [Example 99, 1-[(4R)-7-chloro-2,2-bis(fluoromethyl)-3,4-dihydro-2H-chromen-4-yl]-3-(2-oxo-1,2-dihydroquinolin-5-yl)urea]
310 | 95 | CC1(C)C[C@@H](NC(=O)Nc2ccc3c(c2)NC(=O)CO3)c2cccc(F)c2O1 [Example 100, 1-[(4R)-8-fluoro-2,2-dimethyl-3,4-dihydro-2H-chromen-4-yl]-3-(3-oxo-3,4-dihydro-2H-1,4-benzoxazin-6-yl)urea]
95 | 105 | CCC1(CC)C[C@@H](NC(=O)Nc2ccc3c(c2)NC(=O)CO3)c2cccc(F)c2O1 [Example 101, 1-[(4R)-2,2-diethyl-8-fluoro-3,4-dihydro-2H-chromen-4-yl]-3-(3-oxo-3,4-dihydro-2H-1,4-benzoxazin-6-yl)urea]
44 | 99 | CCC1(CC)C[C@@H](NC(=O)Nc2ccc3c(c2)NC(=O)CO3)c2ccccc2O1 [Example 102, 1-[(4R)-2,2-diethyl-3,4-dihydro-2H-chromen-4-yl]-3-(3-oxo-3,4-dihydro-2H-1,4-benzoxazin-6-yl)urea]
110 | 75 | CCC1(CC)C[C@@H](NC(=O)Nc2ccc3c(c2)NC(=O)CO3)c2ccc(C(F)(F)F)cc2O1 [Example 103, 1-[(4R)-2,2-diethyl-7-(trifluoromethyl)-3,4-dihydro-2H-chromen-4-yl]-3-(3-oxo-3,4-dihydro-2H-1,4-benzoxazin-6-yl)urea]
200 | 80 | CCC1(CC)C[C@@H](NC(=O)Nc2ccc3c(c2)NC(=O)CO3)c2ccc(Cl)cc2O1 [Example 104, 1-[(4R)-7-chloro-2,2-diethyl-3,4-dihydro-2H-chromen-4-yl]-3-(3-oxo-3,4-dihydro-2H-1,4-benzoxazin-6-yl)urea]
460 | 79 | CCC1(CC)C[C@@H](NC(=O)Nc2ccc3c(c2)NC(=O)CO3)c2ccc(Cl)c(Cl)c2O1 [Example 105, 1-[(4R)-7,8-dichloro-2,2-diethyl-3,4-dihydro-2H-chromen-4-yl]-3-(3-oxo-3,4-dihydro-2H-1,4-benzoxazin-6-yl)urea]
